Assay results taken from ChEMBL document CHEMBL1201862, “PubChem BioAssay data set” (2004).
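The compound was tested at five concentrations on cells cultured in 96-well plates, with a 48-hour exposure period. GI50 = concentration required for 50% inhibition of growth.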 The source made the active and inactive calls. Cut-off read from the data, not from the text of the source: active = GI50 up to about 1.1 µM and inactive = higher.

What was measured:
Experiment in all cases: NCI anticancer screen, dose series, 48 h
OVCAR-3 = test system: OVCAR-3
COLO 205 = test system: COLO 205
HOP-62 = test system: HOP-62
A498 = test system: A498
SF-539 = test system: SF-539
OVCAR-4 = test system: OVCAR-4
HCC 2998 = test system: HCC 2998
KM12 = test system: KM12
MDA-MB-231 = test system: MDA-MB-231
MDA-MB-435 = test system: MDA-MB-435
A549 = test system: A549
CCRF-CEM = test system: CCRF-CEM
UACC-257 = test system: UACC-257
UACC-62 = test system: UACC-62
SW-620 = test system: SW-620
RPMI-8226 = test system: RPMI-8226
EKVX = test system: EKVX
SF-295 = test system: SF-295
K562 = test system: K562
LOX IMVI = test system: LOX IMVI

SMILES | GI50 (OVCAR-3) | GI50 (COLO 205) | GI50 (HOP-62) | GI50 (A498) | GI50 (SF-539) | GI50 (OVCAR-4) | GI50 (HCC 2998) | GI50 (KM12) | GI50 (MDA-MB-231) | GI50 (MDA-MB-435) | GI50 (A549) | GI50 (CCRF-CEM) | GI50 (UACC-257) | GI50 (UACC-62) | GI50 (SW-620) | GI50 (RPMI-8226) | GI50 (EKVX) | GI50 (SF-295) | GI50 (K562) | GI50 (LOX IMVI)
C=C1[C@@](C)([C@@H]2CCCS2)[C@H]2C(C)=C[C@]1(C)n1c(=O)n(-c3ccccc3)c(=O)n12 | > 100 µM (inactive) | > 100 µM (inactive) | > 100 µM (inactive) | > 100 µM (inactive) | > 100 µM (inactive) | > 100 µM (inactive) | > 100 µM (inactive) | > 100 µM (inactive) | > 100 µM (inactive) | > 100 µM (inactive) | > 100 µM (inactive) | > 100 µM (inactive) | > 100 µM (inactive) | > 100 µM (inactive) | > 100 µM (inactive) | > 100 µM (inactive) | > 100 µM (inactive) | > 100 µM (inactive) |  | 
C=CCCCC1CCCNC1=S (stereo not drawn) | > 100 µM (inactive) |  | > 100 µM (inactive) | > 100 µM (inactive) | > 100 µM (inactive) | > 100 µM (inactive) | > 100 µM (inactive) | > 100 µM (inactive) | > 100 µM (inactive) | > 100 µM (inactive) | > 100 µM (inactive) |  | > 100 µM (inactive) | > 100 µM (inactive) | > 100 µM (inactive) | > 100 µM (inactive) | > 100 µM (inactive) | > 100 µM (inactive) | > 100 µM (inactive) | 
COc1cc([C@@]23OC[C@@H]4[C@@H](OC[C@@H]42)c2cc4c(cc23)OCO4)cc(OC)c1OC | < 0.01 µM (active) | < 0.01 µM (active) | < 0.01 µM (active) | < 0.01 µM (active) | < 0.01 µM (active) | 5.19 µM (inactive) | < 0.01 µM (active) | < 0.01 µM (active) | < 0.01 µM (active) | < 0.01 µM (active) | < 0.01 µM (active) | < 0.01 µM (active) | < 0.01 µM (active) | < 0.01 µM (active) | < 0.01 µM (active) |  |  | < 0.01 µM (active) | < 0.0208 µM (active) | < 0.01 µM (active)
Cc1ccc2c(c1)Nc1ccccc1P2(=O)O | > 100 µM (inactive) | > 100 µM (inactive) | > 100 µM (inactive) | > 100 µM (inactive) | > 100 µM (inactive) | > 100 µM (inactive) | > 100 µM (inactive) | > 100 µM (inactive) | > 100 µM (inactive) | > 100 µM (inactive) | > 100 µM (inactive) | > 100 µM (inactive) | > 100 µM (inactive) | > 100 µM (inactive) | > 100 µM (inactive) |  | > 100 µM (inactive) | > 100 µM (inactive) | > 100 µM (inactive) | > 100 µM (inactive)
CCNC(=O)Nc1cccc(NC(=O)NCC)n1 | > 100 µM (inactive) | > 100 µM (inactive) | 81.8 µM (inactive) | 60.1 µM (inactive) | > 100 µM (inactive) | > 100 µM (inactive) | 62.1 µM (inactive) | > 100 µM (inactive) | > 100 µM (inactive) | > 100 µM (inactive) | > 100 µM (inactive) | > 100 µM (inactive) | 92.9 µM (inactive) | 36 µM (inactive) | > 100 µM (inactive) |  | 35.8 µM (inactive) | > 100 µM (inactive) | > 100 µM (inactive) | 
CCC(C#N)NCc1cccc(CNC(C#N)CC)c1 (stereo not drawn) | > 100 µM (inactive) | > 100 µM (inactive) |  | > 100 µM (inactive) | > 100 µM (inactive) | > 100 µM (inactive) | > 100 µM (inactive) | > 100 µM (inactive) | > 100 µM (inactive) | > 100 µM (inactive) | > 100 µM (inactive) | > 100 µM (inactive) | > 100 µM (inactive) | > 100 µM (inactive) | > 100 µM (inactive) |  | > 100 µM (inactive) | 19.5 µM (inactive) | > 100 µM (inactive) | > 100 µM (inactive)
